{"source": "ChEMBL document CHEMBL1128784", "about": "“Symmetry-based HIV Protease inhibitors: rational design of 2-methylbenzamides as novel P2/P2 ligands” (Bioorg Med Chem Lett, 1995)", "target": "Human immunodeficiency virus type 1 protease (Human immunodeficiency virus 1, UniProt Q72874)", "assay": "Inhibitory activity against HIV protease", "data": [{"smiles": "Cc1c(N)cccc1C(=O)N[C@@H](Cc1ccccc1)[C@H](O)[C@H](O)[C@H](Cc1ccccc1)NC(=O)c1cccc(N)c1C", "values": [{"measurement": "Ki", "value": 0.0025, "unit": "µM"}]}, {"smiles": "Cc1ccc(O)cc1C(=O)N[C@@H](Cc1ccccc1)[C@H](O)[C@H](O)[C@H](Cc1ccccc1)NC(=O)c1cc(O)ccc1C", "values": [{"measurement": "Ki", "value": 0.074, "unit": "µM"}]}]}
